Assay results: patent US10058550B2, “Methods of treating heart failure” (priority 2015, dated 2018)

Target: human APJ receptor (Homo sapiens (Human), UniProt P35414)
Assay: biochemical
Assay type: biochemical
Conditions: read-out: Activity hAPJ SPA EC50 IP
Procedure: The human APJ receptor was cloned by polymerase chain reaction and the gene encoding the receptor was subcloned in pFLAG-CMV™-3 expression vector (Sigma, Saint Louis, Mo. USA) in-house at Amgen. A GTPγS binding assay was performed on membranes prepared from CHO cells stably expressing human APJ receptor. The optimum experimental conditions for the concentrations of GDP, MgCl2, and NaCl in the assay buffer were initially determined. The assay was performed in assay buffer [20 mM HEPES, pH 7.5, 5 mM MgCl2, and 0.1% (w/v) BSA with 200 mM NaCl, 3 μM GDP] and membranes expressing human APJ receptor/well along with WGA PS beads. The reaction was initiated by addition of 0.2 nM [^35S]GTPγS (Perkin Elmer Life and Analytical Sciences, Waltham USA) in the absence or presence of various ligands and incubated at RT for 90 min. […] All the results presented are means of several independent experiments and analyzed by non-linear regression methods using commercially available program Prism (GraphPad, San Diego, Calif.) to obtain EC50 detailed in Table 58.

Chain of human APJ receptor (P35414 whole entry): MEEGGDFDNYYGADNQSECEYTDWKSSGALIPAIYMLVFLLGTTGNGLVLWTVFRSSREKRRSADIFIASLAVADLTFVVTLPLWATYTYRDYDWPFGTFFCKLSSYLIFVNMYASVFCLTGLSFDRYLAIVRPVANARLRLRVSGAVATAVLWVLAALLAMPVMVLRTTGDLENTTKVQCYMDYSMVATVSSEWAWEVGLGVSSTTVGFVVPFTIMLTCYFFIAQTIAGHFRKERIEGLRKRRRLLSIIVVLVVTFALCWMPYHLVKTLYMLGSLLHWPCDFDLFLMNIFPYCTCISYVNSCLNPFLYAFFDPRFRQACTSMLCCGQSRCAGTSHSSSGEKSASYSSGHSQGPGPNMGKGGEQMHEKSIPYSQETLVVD

Row | SMILES | EC50 [nM]
1 | COc1cccc(-c2nnc(NS(=O)(=O)[C@@H](C)[C@H](OC)c3ncc(C)cn3)n2-c2cccc(C)c2C)n1 (atropisomer, axis not shown; (P)) [Example 70.0, (1R,2S,P)-N-(4-(2,3-dimethylphenyl)-5-(6-methoxy-2-pyridinyl)-4H-1,2,4-triazol-3-yl)-1-methoxy-1-(5-methyl-2-pyrimidinyl)-2-propanesulfonamide and (1R,2S,M)-N-(4-(2,3-dimethylphenyl)-5-(6-methoxy-2-pyridinyl)-4H-1,2,4-triazol-3-yl)-1-methoxy-1-(5-methyl-2-pyrimidinyl)-2-propanesulfonamide] | 2.6
2 | COc1cccc(OC)c1-n1c(NS(=O)(=O)C[C@H](O)c2ccc(C#N)cc2S(C)(=O)=O)nnc1-c1cncc(C)c1 (single isomer, unassigned) [Example 491.0, (2R)-2-(4-cyano-2-(methylsulfonyl)phenyl)-N-(4-(2,6-dimethoxyphenyl)-5-(5-methyl-3-pyridinyl)-4H-1,2,4-triazol-3-yl)-2-hydroxyethanesulfonamide or (2S)-2-(4-cyano-2-(methylsulfonyl)phenyl)-N-(4-(2,6-dimethoxyphenyl)-5-(5-methyl-3-pyridinyl)-4H-1,2,4-triazol-3-yl)-2-hydroxyethanesulfonamide] | 0.33
3 | COc1cccc(-c2nnc(NS(=O)(=O)C[C@H](OC)c3ccc(F)cn3)n2-c2c(OC)cccc2OC)n1 (single isomer, unassigned) [Example 329.0, (2R)—N-(4-(2,6-dimethoxyphenyl)-5-(6-methoxy-2-pyridinyl)-4H-1,2,4-triazol-3-yl)-2-(5-fluoro-2-pyridinyl)-2-methoxyethanesulfonamide or (2S)—N-(4-(2,6-dimethoxyphenyl)-5-(6-methoxy-2-pyridinyl)-4H-1,2,4-triazol-3-yl)-2-(5-fluoro-2-pyridinyl)-2-methoxyethanesulfonamide] | 0.23
4 | COc1cnc([C@H](O)[C@@H](C)S(=O)(=O)Nc2nnc(-c3cccnc3)n2-c2c(OC)cccc2OC)cn1 (single isomer, unassigned) [Example 706.0, (1S,2R)-N-(4-(2,6-dimethoxyphenyl)-5-(3-pyridinyl)-4H-1,2,4-triazol-3-yl)-1-hydroxy-1-(5-methoxy-2-pyrazinyl)-2-propanesulfonamide or (1R,2S)-N-(4-(2,6-dimethoxyphenyl)-5-(3-pyridinyl)-4H-1,2,4-triazol-3-yl)-1-hydroxy-1-(5-methoxy-2-pyrazinyl)-2-propanesulfonamide] | 0.34
5 | COc1cccc(-c2nnc(NS(=O)(=O)[C@@H](C)[C@H](OC)c3ncc(C)cn3)n2-c2c(F)cccc2F)n1 [Example 684.0, (1R,2S)-N-(4-(2,6-difluorophenyl)-5-(6-methoxy-2-pyridinyl)-4H-1,2,4-triazol-3-yl)-1-methoxy-1-(5-methyl-2-pyrimidinyl)-2-propanesulfonamide] | 0.81
6 | COc1cccc(OC(F)F)c1-n1c(NS(=O)(=O)[C@@H](C)[C@H](OC)c2ncc(C)cn2)nnc1-c1cncc(C)c1 [Example 668.0, (1R,2S,P)-N-(4-(2-(difluoromethoxy)-6-methoxyphenyl)-5-(5-methyl-pyridinyl)-4H-1,2,4-triazol-3-yl)-1-methoxy-1-(5-methyl-2-pyrimidinyl)-2-propanesulfonamide and (1R,2S,M)-N-(4-(2-(difluoromethoxy)-6-methoxyphenyl)-5-(5-methyl-3-pyridinyl)-4H-1,2,4-triazol-3-yl)-1-methoxy-1-(5-methyl-2-pyrimidinyl)-2-propanesulfonamide] | 0.76
7 | COc1ncnc(OC)c1-n1c(NS(=O)(=O)[C@@H](C)[C@H](OC)c2ncc(C)cn2)nnc1-c1ccccn1 [Example 628.0, (1R,2S)-N-(4-(4,6-dimethoxy-5-pyrimidinyl)-5-(2-pyridinyl)-4H-1,2,4-triazol-3-yl)-1-methoxy-1-(5-methyl-2-pyrimidinyl)-2-propanesulfonamide] | 6.5
8 | COc1cccc(-c2nnc(NS(=O)(=O)[C@@H](C)[C@H](OC)c3ncc(C)cn3)n2-c2ccc(F)cc2Cl)n1 (atropisomer, axis not shown; (P)) [Example 67.0, (1R,2S,P)-N-(4-(2-chloro-4-fluorophenyl)-5-(6-methoxy-2-pyridinyl)-4H-1,2,4-triazol-3-yl)-1-methoxy-1-(5-methyl-2-pyrimidinyl)-2-propanesulfonamide and (1R,2S,M)-N-(4-(2-chloro-4-fluorophenyl)-5-(6-methoxy-2-pyridinyl)-4H-1,2,4-triazol-3-yl)-1-methoxy-1-(5-methyl-2-pyrimidinyl)-2-propanesulfonamide] | 15
9 | Cc1cccc(-c2nnc(NS(=O)(=O)[C@@H](C)[C@H](C)c3ncc(Cl)cn3)n2-c2c(F)cccc2F)n1 [Example 788.0, (2S,3R)-3-(5-chloro-2-pyrimidinyl)-N-(4-(2,6-difluorophenyl)-5-(6-methyl-2-pyridinyl)-4H-1,2,4-triazol-3-yl)-2-butanesulfonamide] | 0.84
10 | COc1cccc(-c2nnc(NS(=O)(=O)C[C@H](O)c3ccc(F)cn3)n2-c2c(OC)cccc2OC)n1 (single isomer, unassigned) [Example 316.0, (2R)—N-(4-(2,6-dimethoxyphenyl)-5-(6-methoxy-2-pyridinyl)-4H-1,2,4-triazol-3-yl)-2-(5-fluoro-2-pyridinyl)-2-hydroxyethanesulfonamide or (2S)—N-(4-(2,6-dimethoxyphenyl)-5-(6-methoxy-2-pyridinyl)-4H-1,2,4-triazol-3-yl)-2-(5-fluoro-2-pyridinyl)-2-hydroxyethanesulfonamide] | 0.5
11 | COc1cccc(OC)c1-n1c(NS(=O)(=O)[C@@H](C)[C@H](C)c2ncc(F)cn2)nnc1-c1cccnc1 (mixture of isomers) [Example 182.0, (2R,3S)-N-(4-(2,6-dimethoxyphenyl)-5-(3-pyridinyl)-4H-1,2,4-triazol-3-yl)-3-(5-fluoro-2-pyrimidinyl)-2-butanesulfonamide and (2S,3R)-N-(4-(2,6-dimethoxyphenyl)-5-(3-pyridinyl)-4H-1,2,4-triazol-3-yl)-3-(5-fluoro-2-pyrimidinyl)-2-butanesulfonamide] | 1.1
12 | COc1cccc(-c2nnc(NS(=O)(=O)[C@@H](C)[C@@H](O)c3ncc(C)cn3)n2-c2c(OC)cccc2OC)n1 (single isomer, unassigned) [Example 583.0] | 0.19
13 | COc1cccc(OC)c1-n1c(NS(=O)(=O)[C@@H](C)[C@@H](C)n2cc(C)cn2)nnc1-c1cncc(C)c1 (single isomer, unassigned) [Example 650.0] | 39
14 | COc1cccc(OC)c1-n1c(NS(=O)(=O)C(C)Cc2ncc(F)cn2)nnc1-c1cncc(Br)c1 (racemic) [Example 146.0, (2R)-N-(5-(5-bromo-3-pyridinyl)-4-(2,6-dimethoxyphenyl)-4H-1,2,4-triazol-3-yl)-1-(5-fluoro-2-pyrimidinyl)-2-propanesulfonamide and (2S)-N-(5-(5-bromo-3-pyridinyl)-4-(2,6-dimethoxyphenyl)-4H-1,2,4-triazol-3-yl)-1-(5-fluoro-2-pyrimidinyl)-2-propanesulfonamide] | 2.1
15 | COc1cccc(-c2nnc(NS(=O)(=O)[C@@H](C)[C@H](OC)c3ncc(C)cn3)n2-c2ccc(N(C)C)cc2)n1 [Example 77.0, (1R,2S)-N-(4-(4-(dimethylamino)phenyl)-5-(6-methoxy-2-pyridinyl)-4H-1,2,4-triazol-3-yl)-1-methoxy-1-(5-methyl-2-pyrimidinyl)-2-propanesulfonamide] | 7
16 | COc1cccc(-c2nnc(NS(=O)(=O)[C@@H](C)[C@H](OC)c3ncc(C)cn3)n2-c2ccc(F)c(F)c2)n1 [Example 71.0, (1R,2S)-N-(4-(3,4-difluorophenyl)-5-(6-methoxy-2-pyridinyl)-4H-1,2,4-triazol-3-yl)-1-methoxy-1-(5-methyl-2-pyrimidinyl)-2-propanesulfonamide] | 210
17 | COc1cccc(-c2nnc(NS(=O)(=O)[C@@H](C)[C@@H](OC(C)C)c3ncc(C)cn3)n2-c2c(OC)cccc2OC)n1 (single isomer, unassigned) [Example 95.0] | 0.11
18 | COc1ncnc(OC)c1-n1c(NS(=O)(=O)[C@@H]2C[C@@H](OC)CN(c3ncc(F)cn3)C2)nnc1-c1cccnc1 (single isomer, unassigned) [Example 812.0, (3S,5S)—N-(4-(4,6-dimethoxy-5-pyrimidinyl)-5-(3-pyridinyl)-4H-1,2,4-triazol-3-yl)-1-(5-fluoro-2-pyrimidinyl)-5-methoxy-3-piperidinesulfonamide or (3R,5R)—N-(4-(4,6-dimethoxy-5-pyrimidinyl)-5-(3-pyridinyl)-4H-1,2,4-triazol-3-yl)-1-(5-fluoro-2-pyrimidinyl)-5-methoxy-3-piperidinesulfonamide] | 230
19 | COc1cccc(OC)c1-n1c(NS(=O)(=O)[C@@H](C)Cc2ncc(F)cn2)nnc1-c1cncc(Cl)c1 (single isomer, unassigned) [Example 220.0] | 7.1
20 | CCS(=O)(=O)Nc1nnc(-c2cccc(OC)n2)n1-c1c(OC)cccc1OC [Example 29.0, N-(4-(2,6-dimethoxyphenyl)-5-(6-methoxypyridin-2-yl)-4H-1,2,4-triazol-3-yl)ethanesulfonamide] | 150
